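Growth conditions: 96-well plates. Treatment: test compound, 48 hours, 5 concentrations. Analysis: linear interpolation between bracketing concentrations; unreached endpoints set to highest concentration. Abbreviation: GI50, concentration required for 50% inhibition of growth.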 The source made the active and inactive calls. Cut-off read from the data, not from the text of the source: active = GI50 up to about 1.1 µM and inactive = higher.
Assays:
Test in all cases: NCI-60 cell line screen, 48 h
A549 = tested on: A549
ACHN = tested on: ACHN
CAKI-1 = tested on: CAKI-1
CCRF-CEM = tested on: CCRF-CEM
HCT-116 = tested on: HCT-116
HCT-15 = tested on: HCT-15
HT-29 = tested on: HT-29
NCI-H460 = tested on: NCI-H460
NCI/ADR-RES = tested on: NCI/ADR-RES
OVCAR-4 = tested on: OVCAR-4
OVCAR-5 = tested on: OVCAR-5
PC-3 = tested on: PC-3
RPMI-8226 = tested on: RPMI-8226
SF-268 = tested on: SF-268
SK-OV-3 = tested on: SK-OV-3
SNB-19 = tested on: SNB-19
SNB-75 = tested on: SNB-75
SR = tested on: SR
TK-10 = tested on: TK-10
UACC-62 = tested on: UACC-62

Row | SMILES | GI50 (A549) | GI50 (ACHN) | GI50 (CAKI-1) | GI50 (CCRF-CEM) | GI50 (HCT-116) | GI50 (HCT-15) | GI50 (HT-29) | GI50 (NCI-H460) | GI50 (NCI/ADR-RES) | GI50 (OVCAR-4) | GI50 (OVCAR-5) | GI50 (PC-3) | GI50 (RPMI-8226) | GI50 (SF-268) | GI50 (SK-OV-3) | GI50 (SNB-19) | GI50 (SNB-75) | GI50 (SR) | GI50 (TK-10) | GI50 (UACC-62)
1 | C=C1C(=O)O[C@@H]2/C=C(/C)[C@@H](OC(C)=O)C/C=C(\C)C(O)[C@@H](OC(=O)/C(C)=C\C)C12 (stereo not given in full) | 95.7 µM (inactive) | 18.7 µM (inactive) | 24.2 µM (inactive) | 9.53 µM (inactive) | 16.3 µM (inactive) | 16.5 µM | 20.6 µM (inactive) | 39 µM (inactive) | 32.7 µM (inactive) | 41.6 µM (inactive) | 58.2 µM (inactive) | 76.2 µM (inactive) | 21.6 µM (inactive) | 38.3 µM (inactive) | > 100 µM (inactive) | > 100 µM (inactive) | 79.8 µM (inactive) | 17.3 µM (inactive) | 68.7 µM (inactive) | 26.4 µM (inactive)
2 | CCn1c(-c2ccc(OC(C)=O)cc2)c(C)c2cc(OC(C)=O)ccc21 [ZINDOXIFENE] | 15.4 µM (inactive) | 19.4 µM (inactive) | 24.3 µM (inactive) | 23.3 µM (inactive) | 6.84 µM (inactive) | 3.79 µM | 29.5 µM (inactive) | 6.04 µM (inactive) | 24.9 µM (inactive) | 18.1 µM (inactive) | 24.9 µM (inactive) | 13.7 µM (inactive) | 12.5 µM (inactive) | 16.6 µM (inactive) | 23.1 µM (inactive) | 31 µM (inactive) | 16.5 µM (inactive) | 5.27 µM (inactive) | 20 µM (inactive) | 13.2 µM (inactive)
